Measured values taken from US20080248511A1, “METHODS TO QUENCH LIGHT FROM OPTICAL REACTIONS” (priority 2007, published 2008).
Like-named read-outs stand apart in the source and are kept apart here.

Columns and labels:
Renilla luciferase [1] = target: T1, Renilla luciferase (Renilla reniformis, UniProt P27652); experiment: biochemical; type: biochemical; conditions: for remaining activity at 0.5 %: 0.5% detergent in Renilla Luciferase Assay Reagent, read-out: Retained Renilla Luciferase Luminescence (%); for Selectivity Value: retained firefly / retained Renilla, 0.5% detergent
T1 sequence (P27652 1-311): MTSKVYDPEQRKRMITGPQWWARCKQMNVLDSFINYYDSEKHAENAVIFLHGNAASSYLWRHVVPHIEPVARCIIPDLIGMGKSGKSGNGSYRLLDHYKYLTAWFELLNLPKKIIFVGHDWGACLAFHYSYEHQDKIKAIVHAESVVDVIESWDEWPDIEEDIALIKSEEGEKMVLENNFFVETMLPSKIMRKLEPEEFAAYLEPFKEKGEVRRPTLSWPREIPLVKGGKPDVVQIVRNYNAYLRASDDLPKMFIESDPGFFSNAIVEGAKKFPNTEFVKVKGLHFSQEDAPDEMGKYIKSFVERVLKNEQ
Procedure: (§1) The retained luminescence for each luciferase was calculated by dividing the luminescence in the presence of the detergent by the luminescence in the absence of the test detergent. The selectivity value for each of the test detergents was determined by dividing the retained firefly luciferase luminescence by the retained Renilla luciferase luminescence.
(§2) A set of detergents (Table 2; Sigma-Aldrich) was added at 0.5% (from a 5% or 10% stock solution) to either Luciferase Assay Reagent (Promega) or Renilla Luciferase Assay Reagent (Promega) and allowed to equilibrate at room temperature.
(§3) The firefly luciferase and Renilla luciferase enzymes were diluted as follows. Firefly luciferase was diluted to 14 ng/ml in Phosphate Buffered Saline (PBS) containing 0.1% of the protein carrier Prionex® (Pentapharm). Renilla luciferase was diluted to 10 ng/ml in 1× Renilla Luciferase Lysis Buffer (Promega) containing 0.1% Prionex®. The Renilla Luciferase Lysis Buffer […] detergent micelles when using the Renilla Luciferase Assay Reagent. In the absence of other detergents, this prevents sequestering of coelenterazine which inhibits Renilla luciferase-mediated luminescence.
(§4) The luciferase reactions were initiated by adding 40 μl of either the firefly or Renilla luciferase enzyme solution to 200 μl of the appropriate reagent solution (firefly luciferase enzyme solution+firefly luciferase reagent solution or Renilla luciferase enzyme solution+Renilla luciferase reagent solution, respectively). The reactions were performed in an opaque white, 96-well plate and luminescence was measured for 0.5 seconds per well using a Turner BioSystems Veritas™ Microplate luminometer. The retained firefly luciferase and Renilla luciferase luminescence, as well as the selectivity values for each detergent, were calculated (Table 2).

firefly luciferase [2] = target: T2, firefly luciferase (Photinus pyralis, UniProt P08659); experiment: biochemical; conditions: 0.5% detergent in Luciferase Assay Reagent; read-out: Retained Firefly Luciferase Luminescence (%)
T2 sequence (P08659 whole entry): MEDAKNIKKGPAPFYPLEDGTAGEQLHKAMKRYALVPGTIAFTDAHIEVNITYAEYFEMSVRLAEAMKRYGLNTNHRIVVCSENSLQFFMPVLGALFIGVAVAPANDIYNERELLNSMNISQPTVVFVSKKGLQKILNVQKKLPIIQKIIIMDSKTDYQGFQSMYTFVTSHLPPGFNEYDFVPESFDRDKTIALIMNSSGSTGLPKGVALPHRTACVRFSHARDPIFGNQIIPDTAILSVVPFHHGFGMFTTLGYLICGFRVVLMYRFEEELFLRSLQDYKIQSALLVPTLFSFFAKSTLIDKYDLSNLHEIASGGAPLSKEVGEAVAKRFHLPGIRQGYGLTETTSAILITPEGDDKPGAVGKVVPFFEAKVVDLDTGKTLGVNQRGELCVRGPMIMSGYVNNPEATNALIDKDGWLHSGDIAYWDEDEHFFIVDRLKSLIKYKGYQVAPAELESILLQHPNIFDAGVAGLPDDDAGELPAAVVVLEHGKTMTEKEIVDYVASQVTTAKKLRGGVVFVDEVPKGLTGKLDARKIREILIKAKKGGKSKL
Procedure: as §1, §2, §3, §4

firefly luciferase [3] = target: T2, firefly luciferase; experiment: Detergent titration with Tergitol NP-9, digitonin or no lysing agent, firefly luciferase (Example 4); type: biochemical; conditions: read-out: Relative Firefly Luc Intensity; for remaining activity at 0.0005 %: 0.0005% detergent; for remaining activity at 0.005 %: 0.0050% detergent; for remaining activity at 0.05 %: 0.0500% detergent
Procedure: For measurement of firefly luciferase-mediated luminescence, a solution containing 110 mM HEPES pH 7.5, 8 mM MgSO4, 0.05% gelatin, 7.35 ng/ml firefly luciferase (QuantiLum® Luciferase; Promega) and the content of the Steady-Glo Luciferase Substrate (Promega) at the equivalent of 1×, As in the Renilla luciferase reactions, reactions contained either no lysing agent, 0.5% Tergitol NP-9 or 20 μg/ml digitonin. The same detergents were titrated as described above and firefly luciferase-mediated luminescence was measured.

Renilla luciferase [4] = target: T1, Renilla luciferase; experiment: Detergent titration with Tergitol NP-9, digitonin or no lysing agent, Renilla luciferase (Example 4); type: biochemical; conditions: for remaining activity at 0.0005 % / remaining activity at 0.005 % / remaining activity at 0.05 %: read-out: Relative Renilla Luc Intensity
Procedure: Renilla luciferase-mediated luminescence was measured from samples containing 9.6 mM phosphate buffer pH 6.8, 2.7 mM KCl, 137 mM NaCl (in PBS), 0.1% gelatin, 75 nM coelentrazine (Promega) and 10.2 ng/ml Renilla luciferase. Reactions contained either no lysing agent, 0.5% Tergitol NP-9 or 20 μg/ml digitonin. The detergents to be tested were titrated to 0.05%, 0.005% or 0.0005% in the reactions prior to the addition of the Renilla luciferase. Renilla luciferase-mediated luminescence was measured as described herein.

[5] = 0.0500% (w:v) detergent, Terg (0.5% Tergitol NP-9)
[6] = 0.0500% detergent, Dig (20 μg/ml digitonin)
[7] = 0.0500% detergent, Water (no lysing agent)

SMILES	remaining activity at 0.5 % (Renilla luciferase [1])	remaining activity at 0.5 % (firefly luciferase [2])	remaining activity at 0.0005 % (firefly luciferase [3]; Dig)	remaining activity at 0.0005 % (firefly luciferase [3]; Terg)	remaining activity at 0.0005 % (firefly luciferase [3]; Water)	remaining activity at 0.005 % (firefly luciferase [3]; Dig)	remaining activity at 0.005 % (firefly luciferase [3]; Terg)	remaining activity at 0.005 % (firefly luciferase [3]; Water)	remaining activity at 0.05 % (firefly luciferase [3]; Dig (20 μg/ml digitonin))	remaining activity at 0.05 % (firefly luciferase [3]; Terg (0.5% Tergitol NP-9))	remaining activity at 0.05 % (firefly luciferase [3]; Water (no lysing agent))	Selective Inhibition (Ff Luc Inh/Ren Luc Inh) (Renilla luciferase [4]; 0.0005% detergent, Dig)	remaining activity at 0.0005 % (Renilla luciferase [4]; 0.0005% detergent, Dig)	Selective Inhibition (Ff Luc Inh/Ren Luc Inh) (Renilla luciferase [4]; 0.0005% detergent, Terg)	remaining activity at 0.0005 % (Renilla luciferase [4]; 0.0005% detergent, Terg)	Selective Inhibition (Ff Luc Inh/Ren Luc Inh) (Renilla luciferase [4]; 0.0005% detergent, Water)	remaining activity at 0.0005 % (Renilla luciferase [4]; 0.0005% detergent, Water)	Selective Inhibition (Ff Luc Inh/Ren Luc Inh) (Renilla luciferase [4]; 0.0050% detergent, Dig)	remaining activity at 0.005 % (Renilla luciferase [4]; 0.0050% detergent, Dig)	Selective Inhibition (Ff Luc Inh/Ren Luc Inh) (Renilla luciferase [4]; 0.0050% detergent, Terg)	other results
CCCCCCCCCCCCCC[N+](C)(C)Cc1ccccc1.[Br-] [Benzyldimethyltetradecylammonium bromide]	0.13%	0.21%	155%	98%	126%	128%	93%	106%	1.4%	45%	10%	11.0	14%	1.0	96%	10.2	12%	5067	0.03%	1.3	Selectivity Value (Renilla luciferase [1]): 1.6; remaining activity at 0.005 % (Renilla luciferase [4]; 0.0050% detergent, Terg): 70%; Selective Inhibition (Ff Luc Inh/Ren Luc Inh) (Renilla luciferase [4]; 0.0050% detergent, Water): 7068; remaining activity at 0.005 % (Renilla luciferase [4]; 0.0050% detergent, Water): 0.01%; remaining activity at 0.05 % (Renilla luciferase [4]; [5]): 5%; Selective Inhibition (Ff Luc Inh/Ren Luc Inh) (Renilla luciferase [4]; 0.0500% detergent, Dig): 60; remaining activity at 0.05 % (Renilla luciferase [4]; [6]): 0.02%; Selective Inhibition (Ff Luc Inh/Ren Luc Inh) (Renilla luciferase [4]; 0.0500% detergent, Terg): 10; Selective Inhibition (Ff Luc Inh/Ren Luc Inh) (Renilla luciferase [4]; 0.0500% detergent, Water): 451; remaining activity at 0.05 % (Renilla luciferase [4]; [7]): 0.02%
CCCCCCCCCCCC[N+](C)(C)C.[Br-] [Dodecyltrimethylammonium bromide]	1.74%	42.1%	103%	96%	107%	128%	93%	128%	184%	71%	197%	1.1	96%	1.0	98%	1.1	95%	2.3	55%	1.2	Selectivity Value (Renilla luciferase [1]): 24.2; remaining activity at 0.005 % (Renilla luciferase [4]; 0.0050% detergent, Terg): 76%; Selective Inhibition (Ff Luc Inh/Ren Luc Inh) (Renilla luciferase [4]; 0.0050% detergent, Water): 2.5; remaining activity at 0.005 % (Renilla luciferase [4]; 0.0050% detergent, Water): 51%; remaining activity at 0.05 % (Renilla luciferase [4]; [5]): 9%; Selective Inhibition (Ff Luc Inh/Ren Luc Inh) (Renilla luciferase [4]; 0.0500% detergent, Dig): 98; remaining activity at 0.05 % (Renilla luciferase [4]; [6]): 2%; Selective Inhibition (Ff Luc Inh/Ren Luc Inh) (Renilla luciferase [4]; 0.0500% detergent, Terg): 8; Selective Inhibition (Ff Luc Inh/Ren Luc Inh) (Renilla luciferase [4]; 0.0500% detergent, Water): 110; remaining activity at 0.05 % (Renilla luciferase [4]; [7]): 2%
Cc1cc(C)c(C[N+](C)(C)C)cc1C.[Br-] [Trimethyl(2,4,5-Trimethylbenzyl)ammonium bromide]	1.87%	0.06%	116%	95%	116%	52%	83%	54%	1%	12%	1%	1.8	63%	1.0	92%	1.9	62%	18	3%	1.2	remaining activity at 0.005 % (Renilla luciferase [4]; 0.0050% detergent, Terg): 67%; Selective Inhibition (Ff Luc Inh/Ren Luc Inh) (Renilla luciferase [4]; 0.0050% detergent, Water): 17; remaining activity at 0.005 % (Renilla luciferase [4]; 0.0050% detergent, Water): 3%; remaining activity at 0.05 % (Renilla luciferase [4]; [5]): 4%; Selective Inhibition (Ff Luc Inh/Ren Luc Inh) (Renilla luciferase [4]; 0.0500% detergent, Dig): 47; remaining activity at 0.05 % (Renilla luciferase [4]; [6]): 0.03%; Selective Inhibition (Ff Luc Inh/Ren Luc Inh) (Renilla luciferase [4]; 0.0500% detergent, Terg): 2.9; Selective Inhibition (Ff Luc Inh/Ren Luc Inh) (Renilla luciferase [4]; 0.0500% detergent, Water): 50; remaining activity at 0.05 % (Renilla luciferase [4]; [7]): 0.03%
